Measurements as given in patent US8722910B2, “Diyne compositions” (Evolva AG, priority 2009, dated 2014).
Values after ≈ are worked out from the molar mass of the structure shown. Read-outs that look alike come from different tables or passages of the source.

What was measured:
[1] = system: Enterobacter faecalis 29212; experiment: In vitro Antibacterial Activity; format: cell-based
[2] = system: Escherichia coli 700; experiment: In vitro Antibacterial Activity; format: cell-based
[3] = system: C. dubliniensis; experiment: Susceptibility of clinical isolates (MIC, broth dilution); format: cell-based; settings: Candida dubliniensis; C. dubliniensis (n = 25); M27-A3, 24 hrs; read at 50% inhibition (potassium salt, Voriconazole), 100% (Amphotericin), MEC (Caspofungin); read-out: MIC90
Protocol: (§1) The efficacy of compound IV″ was investigated on 563 clinical isolates of 33 human fungal pathogens. […] For species with n≧10, the MIC90 (MIC, minimal inhibitory concentration) is given as ng/ml. For species with n≦10, the MIC range is given as ng/ml. 24 h and 48 h reads are indicated (Table 1).
(§2) The in vitro efficacy of antifungal compounds is determined in susceptibility assays, which are indicative for the spectrum and potency of a compound. Susceptibilities are reported as minimal inhibitory concentrations (MIC, as ng/ml or μg/ml) required to inhibit growth to a defined degree compared to the drug free control. The MIC90 defines the MIC required to inhibit growth for ≧90% of the strains of a population tested.
(§3) The MIC90 was calculated for the indicated species.

[4] = system: C. glabrata; experiment: as above; format: cell-based; settings: Nakaseomyces glabratus
Protocol: as §1, §2, §3

[5] = system: C. krusei; experiment: as above; format: cell-based; settings: Pichia kudriavzevii; C. krusei (n = 27); M27-A3, 24 hrs; read at 50% inhibition (potassium salt, Voriconazole), 100% (Amphotericin), MEC (Caspofungin); read-out: MIC90
Protocol: as §1, §2, §3

[6] = system: C. lusitaniae; experiment: as above; format: cell-based; settings: Clavispora lusitaniae; C. lusitaniae (n = 24); M27-A3, 24 hrs; read at 50% inhibition (potassium salt, Voriconazole), 100% (Amphotericin), MEC (Caspofungin); read-out: MIC90
Protocol: as §1, §2, §3

[7] = system: C. parapsilosis; experiment: as above; format: cell-based; settings: Lodderomyces parapsilosis
Protocol: as §1, §2, §3

[8] = system: C. tropicalis; experiment: as above; format: cell-based; settings: Candida tropicalis; C. tropicalis (n = 35); M27-A3, 24 hrs; read at 50% inhibition (potassium salt, Voriconazole), 100% (Amphotericin), MEC (Caspofungin); read-out: MIC90
Protocol: as §1, §2, §3

[9] = system: C. glabrata, Fluconazole, Voriconazole, Itraconazole and/or Caspofungin resistant isolates; experiment: Susceptibility of resistant clinical isolates (MIC, broth dilution); format: cell-based; settings: Nakaseomyces glabratus; C. glabrata resistant (n = 21): isolates resistant to Fluconazole, Itraconazole, Voriconazole and Caspofungin; read-out: MIC90
Protocol: as §1, §3

[10] = system: Coccidioides spp.; experiment: microbe, parasite or virus in culture; format: cell-based; settings: Coccidioides, 48 h
[11] = system: B. dermatitidis; experiment: Susceptibility of clinical dimorphic fungi (MIC); format: cell-based; settings: Blastomyces dermatitidis; B. dermatitidis (n = 30); CLSI M38-A2; 50% growth reduction; MIC read at 96 h
[12] = system: H. capsulatum; experiment: microbe, parasite or virus in culture; format: cell-based; settings: Histoplasma capsulatum, 120 h
[13] = system: C. albicans; experiment: Fatty acid competition (antagonism) in 96-well plates; settings: 48 h
[14] = system: C. albicans; experiment: Rat model of systemic candidiasis, single intravenous infusion, liver burden; format: in vivo; settings: rats
[15] = system: C. albicans; experiment: Rat model of systemic candidiasis, single oral administration, kidney burden; format: in vivo; settings: rats
[16] = Stability of diyne salts on storage (HPLC content); format: physicochemical
Protocol: Potassium (Z)-14-(furan-2-yl)tetradeca-9-en-11,13-diynoate was kept as a crystalline solid for 6 month at 2-8° C. The content of potassium (Z)-14-(furan-2-yl)tetradeca-9-en-11,13-diynoate was determined by HPLC against a reference sample kept at −20° C. After 6 months of storage characteristics such as colour, water content, XRPD profile, of the solid had not changed and it was still a beige solid. […] Also no change in the impurity profile was observed after 6 months storage.
Potassium (Z)-14-(furan-2-yl)tetradeca-9-en-11,13-diynoate was also kept as a crystalline solid for 6 month at 25° C., 60% RH. Analysis was performed as described above. After 6 months of storage characteristics of the solid has not changed and it was still a beige solid. […] Also no change in the impurity profile was observed after 6 months storage.
Potassium (Z)-14-(furan-2-yl)tetradeca-9-en-11,13-diynoate was also kept as a crystalline solid for 6 month at 40° C., 75% RH. Analysis was performed as described above. After 6 months of storage the appearance of the solid had changed to a brown solid. Furthermore, a decrease in the content of potassium (Z)-14-(furan-2-yl)tetradeca-9-en-11,13-diynoate to 96% was observed as analysed by HPLC.
Sodium (Z)-14-(furan-2-yl)tetradeca-9-en-11,13-diynoate was kept as an amorphous solid at room temperature. […] Furthermore the salt was dissolved in an aqueous solution and already after few days the content of sodium (Z)-14-(furan-2-yl)tetradeca-9-en-11,13-diynoate was reduced by 35%, thus proving strong instability of the amorphous salt form.

[17] = system: Candida albicans; experiment: In vitro antifungal activity vs. yeasts (MIC/MFC); format: cell-based; settings: Candida albicans (n = 8); 90% inhibition endpoint
[18] = system: C. glabrata; experiment: In vitro antifungal activity vs. yeasts (MIC/MFC); format: cell-based; settings: Nakaseomyces glabratus; C. glabrata (n = 1); 90% inhibition endpoint
[19] = system: C. lusitaniae; experiment: In vitro antifungal activity vs. yeasts (MIC/MFC); format: cell-based; settings: Clavispora lusitaniae
[20] = system: C. lipolytica; experiment: In vitro antifungal activity vs. yeasts (MIC/MFC); format: cell-based; settings: Yarrowia lipolytica
[21] = system: C. guilliermondii; experiment: In vitro antifungal activity vs. yeasts (MIC/MFC); format: cell-based; settings: Meyerozyma guilliermondii; C. guilliermondii (n = 1); 90% inhibition endpoint
[22] = system: C. parapsilosis; experiment: In vitro antifungal activity vs. yeasts (MIC/MFC); format: cell-based; settings: Lodderomyces parapsilosis; C. parapsilosis (n = 2); 90% inhibition endpoint
[23] = system: C. krusei; experiment: In vitro antifungal activity vs. yeasts (MIC/MFC); format: cell-based; settings: Pichia kudriavzevii; C. krusei (n = 1); 90% inhibition endpoint
[24] = system: Malassezia furfur; experiment: In vitro antifungal activity vs. yeasts (MIC/MFC); format: cell-based; settings: Malassezia furfur
[25] = system: all Candida strains; experiment: MIC range over all Candida strains tested; format: cell-based; settings: Table 13 strains
[26] = system: ergosterol biosynthesis; experiment: 13C-acetate incorporation into ergosterol; format: cell-based, Candida albicans; settings: drug at about its MIC, added after the first 15 minutes
[27] = system: C. albicans; experiment: Effect on the morphology of growing Candida albicans cultures; format: cell-based; settings: inhibiting concentrations
[28] = system: C. albicans; experiment: Susceptibility of clinical isolates (MIC, broth dilution); format: cell-based; settings: Candida albicans; C. albicans (n = 20); M27-A3, 24 hrs; read at 50% inhibition (potassium salt, Voriconazole), 100% (Amphotericin), MEC (Caspofungin); read-out: MIC90
Protocol: as §1, §2, §3

[29] = system: A. flavus; experiment: Susceptibility of clinical Aspergillus isolates (MIC); format: cell-based; settings: Aspergillus flavus; A. flavus (n = 2); CLSI M38-A2; 50% growth inhibition; 24 h; read-out: MIC50
Protocol: as §1
(§4) Susceptibilities were determined according to the CLSI reference method M38-A2.

[30] = system: A. fumigatus; experiment: as above; format: cell-based; settings: Aspergillus fumigatus; A. fumigatus (n = 20); CLSI M38-A2; 50% growth inhibition; 24 h; read-out: MIC50
Protocol: as §1, §4

[31] = system: A. nidulans; experiment: as above; format: cell-based; settings: 24 h
Protocol: as §1, §4

[32] = system: A. niger; experiment: as above; format: cell-based; settings: A. niger (n = 6), CLSI M38-A2, 50% growth inhibition, 24 h, read-out: MIC50
Protocol: as §1, §4

[33] = system: A. terreus; experiment: as above; format: cell-based; settings: Aspergillus terreus; A. terreus (n = 5); CLSI M38-A2; 50% growth inhibition; 24 h; read-out: MIC50
Protocol: as §1, §4

[34] = system: A. versicolor; experiment: as above; format: cell-based; settings: Aspergillus versicolor; A. versicolor (n = 3); CLSI M38-A2; 50% growth inhibition; 24 h; read-out: MIC50
Protocol: as §1, §4

[35] = system: Staphylococcus aureus 29213; experiment: In vitro Antibacterial Activity; format: cell-based

CC1(C)S[C@@H]2[C@H](NC(=O)[C@H](N)c3ccccc3)C(=O)N2[C@H]1C(=O)O [Ampicillin, reference compound]
MIC90 [1]: 0.78 µg/mL (≈ 2.23 µM) | MIC90 [2]: 3.12 µg/mL (≈ 8.94 µM)

CC[C@H](C)C[C@H](C)CCCCCCCCC(=O)N[C@H]1C[C@@H](O)[C@@H](NCCN)NC(=O)[C@@H]2[C@@H](O)CCN2C(=O)[C@H]([C@H](O)CCN)NC(=O)[C@H]([C@H](O)[C@@H](O)c2ccc(O)cc2)NC(=O)[C@@H]2C[C@@H](O)CN2C(=O)[C@H]([C@@H](C)O)NC1=O [Caspofungin]
MIC90 [3]: 1 µg/mL | MIC90 ([4]; C. glabrata (n = 25), M27-A3, 24 hrs, read at 50% inhibition (potassium salt, Voriconazole), 100% (Amphotericin), MEC (Caspofungin), read-out: MIC90): 2 µg/mL | MIC90 [5]: 2 µg/mL | MIC90 [6]: 2 µg/mL | MIC90 ([7]; C. parapsilosis (n = 37), M27-A3, 24 hrs, read at 50% inhibition (potassium salt, Voriconazole), 100% (Amphotericin), MEC (Caspofungin), read-out: MIC90): 8 µg/mL | MIC90 [8]: 1 µg/mL | MIC90 [9]: 2 µg/mL (≈ 1.83 µM) | MIC90 [10]: 0.5 µg/mL (≈ 0.457 µM) | MIC90 [11]: 4 µg/mL (≈ 3.66 µM) | MIC90 [12]: 2 µg/mL (≈ 1.83 µM) | effect of oleic acid / stearic acid on susceptibility [13]: oleic acid did not decrease the susceptibility

O=C([O-])CCCCCCC/C=C\C#CC#Cc1ccco1.[Na+] [Compound V″, sodium (Z)-14-(furan-2-yl)tetradeca-9-en-11,13-diynoate]
decrease of liver fungal burden (CFU per gram tissue) ([14]; single intravenous infusion 12 mg/kg, 24 h): 93% | decrease of kidney fungal burden (CFU per gram tissue) ([15]; single oral dose 17 mg/kg, 6 h): 57% | appearance after storage ([16]; amorphous solid at room temperature, short term storage): the colour darkened | reduction of content in aqueous solution ([16]; aqueous solution, after few days): 35%

OC(Cn1cncn1)(Cn1cncn1)c1ccc(F)cc1F [Fluconazole, reference compound]
MIC [17]: 1 µg/mL (≈ 3.27 µM) | MIC [18]: 2 µg/mL (≈ 6.53 µM) | MIC [19]: 0.125 µg/mL (≈ 0.408 µM) | MIC [20]: 0.125 µg/mL (≈ 0.408 µM) | MIC [21]: 4 µg/mL (≈ 13.1 µM) | MIC [22]: 1 µg/mL (≈ 3.27 µM) | MIC [23]: 16 µg/mL (≈ 52.2 µM) | MIC [24]: 0.125 µg/mL (≈ 0.408 µM) | MIC range for all Candida strains [25]: 0.125 to 16 µg/mL | net biosynthesis of ergosterol (13C-acetate incorporation) [26]: inhibited the incorporation of acetate into ergosterol | effect on hyphal tube formation ([27]; microscopy): did not affect hyphal tube formation | effect on cell growth ([27]; microscopy and MTT): permitted fungal growth (albeit at a reduced rate) | reduction of tissue burden (cfu/g tissue), comparator ([14]; liver, vs vehicle at 24 hours, dose not given): 93% | reduction of tissue burden (cfu/g tissue), comparator ([15]; vs vehicle at 24 hours, dose not given): 90%

C[C@@H](c1ncncc1F)[C@](O)(Cn1cncn1)c1ccc(F)cc1F [Voriconazole]
MIC90 [28]: 0.03 µg/mL | MIC90 [3]: 0.016 µg/mL | MIC90 ([4]; 24 h): 0.125 µg/mL (≈ 0.358 µM) | MIC90 [5]: 0.5 µg/mL | MIC90 [6]: 0.03 µg/mL | MIC90 ([7]; 24 h): 0.125 µg/mL (≈ 0.358 µM) | MIC90 [8]: 0.03 µg/mL | MIC50 [29]: 0.5 µg/mL (≈ 1.43 µM) | MIC50 [30]: 0.25 µg/mL (≈ 0.716 µM) | MIC50 [31]: 0.125 µg/mL (≈ 0.358 µM) | MIC50 [32]: 1 µg/mL (≈ 2.86 µM) | MIC50 [33]: 0.25 µg/mL (≈ 0.716 µM) | MIC50 [34]: 0.25 µg/mL (≈ 0.716 µM) | MIC90 [10]: 0.125 µg/mL (≈ 0.358 µM) | MIC90 [11]: 0.25 µg/mL (≈ 0.716 µM) | MIC90 [12]: 0.125 µg/mL (≈ 0.358 µM) | effect of oleic acid / stearic acid on susceptibility [13]: oleic acid did not decrease the susceptibility

Gentamicin [reference compound]
MIC90 [35]: Gentamicin—0.78 μg/ml
